Test system: 556581-035-R-J1-PDC complex spheroid viability
Test: Anticancer human tumor 556581-035-R-J1-PDC patient-derived ovarian carcinoma cell line growth inhibition
Conditions: for IC50: curve of first compound; for viability, T/C: stronger effect = lower value
Outline: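 Drug combinations with the LSD1 inhibitor iadademstat tested on tumor cells co-cultured as spheroids with endothelial cells and mesenchymal stem cells. Concentrations descended in half-log increments from clinical Cmax or 10 microM.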
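Further: spheroids exposed to agents for seven days.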
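Wherever viability, T/C is given: 100% = DMSO vehicle control wells.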

**Q.** Which IC50 (second compound 0.1 µM) does the source give for `CC1(C)CCC(CN2CCN(c3ccc(C(=O)NS(=O)(=O)c4ccc(NCC5CCOCC5)c([N+](=O)[O-])c4)c(Oc4cnc5[nH]ccc5c4)c3)CC2)=C(c2ccc(Cl)cc2)C1` + NC1CCC(NC2CC2c2ccccc2)CC1 here?
**A.** The IC50 was 4.38 µM.

**Q.** What about the IC50 (second compound 0.316 µM) of the same molecule?
**A.** Its IC50 is 3.5 µM.

**Q.** What about the IC50 (second compound 1 µM) of the same molecule?
**A.** Its IC50 is 4.18 µM.

**Q.** What about the IC50 (second compound 3.16 µM) of the same molecule?
**A.** Its IC50 is 3.83 µM.

**Q.** What about the IC50 (second compound 10 µM) of the same molecule?
**A.** The IC50 was 2.92 µM.

**Q.** What about the viability, T/C (second compound 0.1 µM, first compound 0.0316 µM) of the same molecule?
**A.** The viability, T/C was 80.7%.

**Q.** What about the viability, T/C (second compound 0.1 µM, first compound 0.1 µM) of the same molecule?
**A.** Its viability, T/C is 86.4%.

**Q.** And the viability, T/C (second compound 0.1 µM, first compound 0.316 µM)?
**A.** Its viability, T/C is 80%.

**Q.** What about the viability, T/C (second compound 0.1 µM, first compound 1 µM) of the same molecule?
**A.** The viability, T/C was 82.8%.

**Q.** And the viability, T/C (second compound 0.1 µM, first compound 3.16 µM)?
**A.** Its viability, T/C is 65.8%.

**Q.** What about the viability, T/C (second compound 0.1 µM, first compound 10 µM) of the same molecule?
**A.** The viability, T/C was 9.71%.

**Q.** What about the viability, T/C (second compound 0.316 µM, first compound 0.0316 µM) of the same molecule?
**A.** Its viability, T/C is 79.9%.

**Q.** What about the viability, T/C (second compound 0.316 µM, first compound 0.1 µM) of the same molecule?
**A.** The viability, T/C was 93.8%.

**Q.** And the viability, T/C (second compound 0.316 µM, first compound 0.316 µM)?
**A.** The viability, T/C was 89.5%.

**Q.** What about the viability, T/C (second compound 0.316 µM, first compound 1 µM) of the same molecule?
**A.** Its viability, T/C is 84.9%.

**Q.** What about the viability, T/C (second compound 0.316 µM, first compound 3.16 µM) of the same molecule?
**A.** The viability, T/C was 54.1%.

**Q.** What about the viability, T/C (second compound 0.316 µM, first compound 10 µM) of the same molecule?
**A.** The viability, T/C was 7.68%.

**Q.** And the viability, T/C (second compound 1 µM, first compound 0.0316 µM)?
**A.** The viability, T/C was 74.2%.

**Q.** What about the viability, T/C (second compound 1 µM, first compound 0.1 µM) of the same molecule?
**A.** Its viability, T/C is 90.7%.

**Q.** What about the viability, T/C (second compound 1 µM, first compound 0.316 µM) of the same molecule?
**A.** Its viability, T/C is 88%.

**Q.** And the viability, T/C (second compound 1 µM, first compound 1 µM)?
**A.** Its viability, T/C is 70.8%.

**Q.** And the viability, T/C (second compound 1 µM, first compound 3.16 µM)?
**A.** Its viability, T/C is 64.5%.

**Q.** And the viability, T/C (second compound 1 µM, first compound 10 µM)?
**A.** The viability, T/C was 10.5%.

**Q.** And the viability, T/C (second compound 3.16 µM, first compound 0.0316 µM)?
**A.** Its viability, T/C is 79.2%.

**Q.** And the viability, T/C (second compound 3.16 µM, first compound 0.1 µM)?
**A.** Its viability, T/C is 77.1%.

**Q.** And the viability, T/C (second compound 3.16 µM, first compound 0.316 µM)?
**A.** The viability, T/C was 77.5%.

**Q.** And the viability, T/C (second compound 3.16 µM, first compound 1 µM)?
**A.** Its viability, T/C is 70.6%.

**Q.** What about the viability, T/C (second compound 3.16 µM, first compound 3.16 µM) of the same molecule?
**A.** The viability, T/C was 58.6%.

**Q.** And the viability, T/C (second compound 3.16 µM, first compound 10 µM)?
**A.** Its viability, T/C is 11.8%.

**Q.** What about the viability, T/C (second compound 10 µM, first compound 0.0316 µM) of the same molecule?
**A.** The viability, T/C was 75.4%.

**Q.** And the viability, T/C (second compound 10 µM, first compound 0.1 µM)?
**A.** The viability, T/C was 77.3%.

**Q.** And the viability, T/C (second compound 10 µM, first compound 0.316 µM)?
**A.** Its viability, T/C is 73.5%.

**Q.** And the viability, T/C (second compound 10 µM, first compound 1 µM)?
**A.** Its viability, T/C is 59.9%.

**Q.** What about the viability, T/C (second compound 10 µM, first compound 3.16 µM) of the same molecule?
**A.** The viability, T/C was 52.4%.

**Q.** What about the viability, T/C (second compound 10 µM, first compound 10 µM) of the same molecule?
**A.** The viability, T/C was 7.8%.

**Q.** For `CCN(c1cc(-c2ccc(CN3CCOCC3)cc2)cc(C(=O)NCc2c(C)cc(C)[nH]c2=O)c1C)C1CCOCC1` + NC1CCC(NC2CC2c2ccccc2)CC1, which IC50 (second compound 0.1 µM) is on record?
**A.** Its IC50 is 1.69 µM.

**Q.** What about the IC50 (second compound 0.316 µM) of the same molecule?
**A.** Its IC50 is > 3 µM.

**Q.** What about the IC50 (second compound 1 µM) of the same molecule?
**A.** Its IC50 is 2.27 µM.

**Q.** What about the IC50 (second compound 3.16 µM) of the same molecule?
**A.** Its IC50 is > 3 µM.

**Q.** What about the IC50 (second compound 10 µM) of the same molecule?
**A.** Its IC50 is 1.62 µM.

**Q.** What about the viability, T/C (second compound 0.1 µM, first compound 0.00949 µM) of the same molecule?
**A.** Its viability, T/C is 89.1%.

**Q.** What about the viability, T/C (second compound 0.1 µM, first compound 0.03 µM) of the same molecule?
**A.** The viability, T/C was 97%.

**Q.** And the viability, T/C (second compound 0.1 µM, first compound 0.0949 µM)?
**A.** The viability, T/C was 100%.

**Q.** And the viability, T/C (second compound 0.1 µM, first compound 0.3 µM)?
**A.** Its viability, T/C is 81.3%.

**Q.** What about the viability, T/C (second compound 0.1 µM, first compound 0.949 µM) of the same molecule?
**A.** The viability, T/C was 59.1%.

**Q.** And the viability, T/C (second compound 0.1 µM, first compound 3 µM)?
**A.** Its viability, T/C is 41.7%.

**Q.** And the viability, T/C (second compound 0.316 µM, first compound 0.00949 µM)?
**A.** The viability, T/C was 84.5%.

**Q.** What about the viability, T/C (second compound 0.316 µM, first compound 0.03 µM) of the same molecule?
**A.** The viability, T/C was 91.7%.

**Q.** What about the viability, T/C (second compound 0.316 µM, first compound 0.0949 µM) of the same molecule?
**A.** Its viability, T/C is 93.9%.

**Q.** And the viability, T/C (second compound 0.316 µM, first compound 0.3 µM)?
**A.** Its viability, T/C is 85.6%.

**Q.** And the viability, T/C (second compound 0.316 µM, first compound 0.949 µM)?
**A.** The viability, T/C was 55%.

**Q.** What about the viability, T/C (second compound 0.316 µM, first compound 3 µM) of the same molecule?
**A.** Its viability, T/C is 50.6%.

**Q.** What about the viability, T/C (second compound 1 µM, first compound 0.00949 µM) of the same molecule?
**A.** Its viability, T/C is 90.7%.

**Q.** What about the viability, T/C (second compound 1 µM, first compound 0.03 µM) of the same molecule?
**A.** The viability, T/C was 93%.

**Q.** What about the viability, T/C (second compound 1 µM, first compound 0.0949 µM) of the same molecule?
**A.** The viability, T/C was 88.5%.

**Q.** And the viability, T/C (second compound 1 µM, first compound 0.3 µM)?
**A.** The viability, T/C was 77.3%.

**Q.** What about the viability, T/C (second compound 1 µM, first compound 0.949 µM) of the same molecule?
**A.** The viability, T/C was 57.1%.

**Q.** What about the viability, T/C (second compound 1 µM, first compound 3 µM) of the same molecule?
**A.** The viability, T/C was 47.7%.

**Q.** And the viability, T/C (second compound 3.16 µM, first compound 0.00949 µM)?
**A.** The viability, T/C was 91.1%.

**Q.** What about the viability, T/C (second compound 3.16 µM, first compound 0.03 µM) of the same molecule?
**A.** The viability, T/C was 100%.

**Q.** What about the viability, T/C (second compound 3.16 µM, first compound 0.0949 µM) of the same molecule?
**A.** The viability, T/C was 76.1%.

**Q.** What about the viability, T/C (second compound 3.16 µM, first compound 0.3 µM) of the same molecule?
**A.** The viability, T/C was 69.8%.

**Q.** What about the viability, T/C (second compound 3.16 µM, first compound 0.949 µM) of the same molecule?
**A.** Its viability, T/C is 60.1%.

**Q.** And the viability, T/C (second compound 3.16 µM, first compound 3 µM)?
**A.** Its viability, T/C is 49.5%.

**Q.** What about the viability, T/C (second compound 10 µM, first compound 0.00949 µM) of the same molecule?
**A.** The viability, T/C was 82.8%.

**Q.** What about the viability, T/C (second compound 10 µM, first compound 0.03 µM) of the same molecule?
**A.** Its viability, T/C is 88.3%.

**Q.** And the viability, T/C (second compound 10 µM, first compound 0.0949 µM)?
**A.** The viability, T/C was 76.5%.

**Q.** What about the viability, T/C (second compound 10 µM, first compound 0.3 µM) of the same molecule?
**A.** The viability, T/C was 70.6%.

**Q.** What about the viability, T/C (second compound 10 µM, first compound 0.949 µM) of the same molecule?
**A.** Its viability, T/C is 54%.

**Q.** What about the viability, T/C (second compound 10 µM, first compound 3 µM) of the same molecule?
**A.** Its viability, T/C is 44.9%.
